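Each compound was tested at five concentrations against cells in 96-well plates for 48 hours. TGI denotes the concentration required for complete inhibition of growth.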
Key:
Assay in all cases: NCI anticancer screen, dose series, 48 h
BT-549 breast = tested on: BT-549 breast
SF-268 CNS = tested on: SF-268 CNS
SR leukemia = tested on: SR leukemia
ACHN renal = tested on: ACHN renal
NCI/ADR-RES ovarian = tested on: NCI/ADR-RES ovarian
NCI-H23 lung = tested on: NCI-H23 lung
K-562 leukemia = tested on: K-562 leukemia
IGROV1 ovarian = tested on: IGROV1 ovarian
NCI-H522 lung = tested on: NCI-H522 lung
MDA-MB-231 breast = tested on: MDA-MB-231 breast
A498 renal = tested on: A498 renal
SNB-19 CNS = tested on: SNB-19 CNS
HS 578T breast = tested on: HS 578T breast
KM12 colon = tested on: KM12 colon
SW-620 colon = tested on: SW-620 colon
PC-3 prostate = tested on: PC-3 prostate
EKVX NSCLC = tested on: EKVX NSCLC
SK-MEL-2 melanoma = tested on: SK-MEL-2 melanoma
OVCAR-4 ovarian = tested on: OVCAR-4 ovarian
SF-539 CNS = tested on: SF-539 CNS

O=C(O)c1nc2cc(C(F)(F)F)ccc2nc1Nc1ccc(Cl)c(Cl)c1
TGI (BT-549 breast): 27.5 µM
TGI (SF-268 CNS): 36.4 µM
TGI (SR leukemia): 96.3 µM
TGI (ACHN renal): 36 µM
TGI (NCI/ADR-RES ovarian): 23.2 µM
TGI (NCI-H23 lung): 31.7 µM
TGI (K-562 leukemia): > 100 µM
TGI (IGROV1 ovarian): 39.3 µM
TGI (NCI-H522 lung): 31.4 µM
TGI (MDA-MB-231 breast): 48.8 µM
TGI (A498 renal): 31.1 µM
TGI (SNB-19 CNS): 53.5 µM
TGI (HS 578T breast): 37.8 µM
TGI (KM12 colon): 26.2 µM
TGI (SW-620 colon): 22.7 µM
TGI (PC-3 prostate): 16.1 µM
TGI (EKVX NSCLC): 42.4 µM
TGI (SK-MEL-2 melanoma): 8.25 µM
TGI (OVCAR-4 ovarian): 65.9 µM
TGI (SF-539 CNS): 23.7 µM

Cc1ccc(N/C(Sc2ccccc2)=C(/C(Cl)=C(Cl)Cl)[N+](=O)[O-])c(C)c1
TGI (BT-549 breast): 29.1 µM
TGI (SF-268 CNS): 29.5 µM
TGI (SR leukemia): > 100 µM
TGI (ACHN renal): > 100 µM
TGI (NCI/ADR-RES ovarian): 70.4 µM
TGI (NCI-H23 lung): 68.7 µM
TGI (K-562 leukemia): 45.8 µM
TGI (IGROV1 ovarian): 40.2 µM
TGI (NCI-H522 lung): 42.9 µM
TGI (MDA-MB-231 breast): 33.2 µM
TGI (A498 renal): 53.4 µM
TGI (SNB-19 CNS): 54 µM
TGI (HS 578T breast): > 100 µM
TGI (KM12 colon): 32.2 µM
TGI (SW-620 colon): 36.7 µM
TGI (PC-3 prostate): 36.1 µM
TGI (EKVX NSCLC): 65.1 µM
TGI (SK-MEL-2 melanoma): 36.9 µM
TGI (OVCAR-4 ovarian): > 100 µM
TGI (SF-539 CNS): 45.4 µM

CN(C)CCNc1ccc2ncnc3c2c1C(=O)c1ccccc1-3
TGI (BT-549 breast): 21 µM
TGI (SF-268 CNS): 4.48 µM
TGI (SR leukemia): 0.915 µM
TGI (ACHN renal): 8.77 µM
TGI (NCI/ADR-RES ovarian): 5.28 µM
TGI (NCI-H23 lung): 3.4 µM
TGI (K-562 leukemia): 6.75 µM
TGI (IGROV1 ovarian): 0.574 µM
TGI (NCI-H522 lung): 0.982 µM
TGI (MDA-MB-231 breast): 4.1 µM
TGI (A498 renal): 9.25 µM
TGI (SNB-19 CNS): 29.8 µM
TGI (HS 578T breast): 15.1 µM
TGI (KM12 colon): 4.55 µM
TGI (SW-620 colon): 3.81 µM
TGI (PC-3 prostate): 7.21 µM
TGI (EKVX NSCLC): 5.67 µM
TGI (SK-MEL-2 melanoma): 10.8 µM
TGI (OVCAR-4 ovarian): 4.27 µM
TGI (SF-539 CNS): 17 µM

Cc1nc2ccccc2c(=O)n1-c1n[nH]c2ccccc12
TGI (BT-549 breast): > 100 µM
TGI (SF-268 CNS): > 100 µM
TGI (SR leukemia): > 100 µM
TGI (ACHN renal): > 100 µM
TGI (NCI/ADR-RES ovarian): > 100 µM
TGI (NCI-H23 lung): > 100 µM
TGI (K-562 leukemia): > 100 µM
TGI (IGROV1 ovarian): > 100 µM
TGI (NCI-H522 lung): > 100 µM
TGI (MDA-MB-231 breast): > 100 µM
TGI (A498 renal): > 100 µM
TGI (SNB-19 CNS): > 100 µM
TGI (HS 578T breast): > 100 µM
TGI (KM12 colon): > 100 µM
TGI (SW-620 colon): > 100 µM
TGI (PC-3 prostate): > 100 µM
TGI (EKVX NSCLC): > 100 µM
TGI (SK-MEL-2 melanoma): > 100 µM
TGI (OVCAR-4 ovarian): > 100 µM
TGI (SF-539 CNS): > 100 µM

COC(=O)C1=C(OC(=O)/C(=C/c2ccc(Cl)cc2Cl)c2ccc(Cl)cc2Cl)C(C(=O)OC)[C@@]2(O)[C@@H](C(=O)OC)[C@H](C)C[C@@H]1[C@@H]2C(=O)OC (stereo not given in full)
TGI (BT-549 breast): > 100 µM
TGI (SF-268 CNS): > 100 µM
TGI (SR leukemia): > 100 µM
TGI (ACHN renal): > 100 µM
TGI (NCI/ADR-RES ovarian): > 100 µM
TGI (NCI-H23 lung): > 100 µM
TGI (K-562 leukemia): > 100 µM
TGI (IGROV1 ovarian): > 100 µM
TGI (NCI-H522 lung): > 100 µM
TGI (MDA-MB-231 breast): > 100 µM
TGI (A498 renal): > 100 µM
TGI (SNB-19 CNS): > 100 µM
TGI (HS 578T breast): > 100 µM
TGI (KM12 colon): > 100 µM
TGI (SW-620 colon): > 100 µM
TGI (PC-3 prostate): > 100 µM
TGI (EKVX NSCLC): > 100 µM
TGI (SK-MEL-2 melanoma): > 100 µM
TGI (OVCAR-4 ovarian): > 100 µM
TGI (SF-539 CNS): > 100 µM

CCOc1cc(-c2nc3ccccn3c2/N=C/c2cc([N+](=O)[O-])cc([N+](=O)[O-])c2O)ccc1O
TGI (BT-549 breast): > 100 µM
TGI (SF-268 CNS): > 100 µM
TGI (SR leukemia): > 100 µM
TGI (ACHN renal): > 100 µM
TGI (NCI/ADR-RES ovarian): > 100 µM
TGI (NCI-H23 lung): > 100 µM
TGI (K-562 leukemia): > 100 µM
TGI (IGROV1 ovarian): > 100 µM
TGI (NCI-H522 lung): > 100 µM
TGI (MDA-MB-231 breast): > 100 µM
TGI (A498 renal): > 100 µM
TGI (SNB-19 CNS): > 100 µM
TGI (HS 578T breast): > 100 µM
TGI (KM12 colon): > 100 µM
TGI (SW-620 colon): > 100 µM
TGI (PC-3 prostate): > 100 µM
TGI (EKVX NSCLC): > 100 µM
TGI (SK-MEL-2 melanoma): > 100 µM
TGI (OVCAR-4 ovarian): > 100 µM
TGI (SF-539 CNS): > 100 µM

Source: PubChem BioAssay (NCI)
